From article PMC7280531, “A PROTAC peptide induces durable β-catenin degradation and suppresses Wnt-dependent intestinal cancer” (Cell Discovery, 2020)
Where a SMILES comes first, the peptide text is derived from it. Bridges are numbered along the chain shown (N, C = ends). [ ]: non-standard residue; d: D form. S5 = C=CCCC[C@](C)(N)C(=O)O; Ahx = NCCCCCC(=O)O

Tests used:
[1] = test system: Wnt/β-catenin signaling; experiment: Topflash luciferase reporter assay in HEK293T cells; type: cell-based; details: Wnt3a CM, 24 h
Procedure: Dual luciferase reporter assay system (Promega) was used. HEK293T cells, cultured in 24-well plates, were transfected with 200 ng Topflash plasmid and 30 ng Renilla plasmid for 3-well cells. […] Then harvested the cells for luciferase activity measurement.

[2] = test system: Axin2 expression; experiment: Axin2^LacZ Wnt reporter mice, β-galactosidase staining of small intestine; type: in vivo; details: i.p. injection, 7 doses/14 days
Procedure: The small intestines were isolated from Axin2^LacZ reporter mice, washed with PBS and fixed in 4 % paraformaldehyde for 1 h at room temperature, then cut into small pieces (1 cm). The tissue pieces were stained with in situ β-galactosidase staining kit (Beyotime) according to the manufacturer’s instruction. The stained tissues were transferred to tissue cassettes and paraffin blocks prepared using standard methods. The tissues were sliced into 5 μm thick sections with paraffin slicing machine (RM2235, Leica) and subjected to hematoxylin staining.

[3] = test system: CRC patient-derived organoids; experiment: CRC patient-derived tumor organoid culture; type: cell-based, human; details: 10 μM
Procedure: Fig. 6 xStAx-VHLL restrains the survival of CRC patient-derived organoids. a Twelve CRC patient-derived organoids, numbered from C-01 to C-12, were treated with DMSO and 10 μM xStAx-VHLL for 4 days. The organoids survival rate of each group was calculated at day 4. b The C-08 organoids were treated with DMSO and 10 μM xStAx-VHLL for 4 days. The trypan blue staining at day 4 indicated the dead organoids. Scale bar = 100 μm. c The percentage of survived C-08 organoids was calculated each day after xStAx-VHLL treatment. d The C-08 organoids were treated with DMSO or 10 μM xStAx-VHLL for 48 h and then harvested for immunoblotting. Relative β-catenin protein levels were quantified. e The C-08 organoids were treated with DMSO and 10 μM xStAx-VHLL for 4 days. Scale bar = 100 μm. f The percentage of survived organoids in C-11 group was calculated each day after xStAx-VHLL treatment. g The C-11 organoids were treated with DMSO or 10 μM xStAx-VHLL for 48 h and then harvested for immunoblotting. Relative β-catenin protein levels were quantified. The relative band intensity was quantified with ImageJ and normalized to GAPDH levels.
CRC patient tumor tissues were washed with cold HBSS. After removing the muscle tissue, the epithelial tumor tissues were cut into small pieces and vigorously suspended. Then the tissue suspension was centrifuged (3 min at 300–400 g) and tumor fraction was enriched at the bottom. Next, the tumor fraction was embedded in Matrigel (BD Biosciences) and seeded on 24-well plates with the culture medium, which includes Advanced DMEM/F12 supplemented with Penicillin/Streptomycin, GlutaMAX-I, N2, B27, N-acetylcysteine (Sigma-Aldrich), CHIR-99021 (5 μM, Selleck), A-83–01 (0.5 μM, Cayman), SB202190 (10 μM, Selleck), gastrin (1 nM, Tocris), Y27632 (10 μM, Enzo), PEG2 (2.5 μM, Selleck), nicotinamide (10 mM, Sigma-Aldrich), EGF (50 ng/mL, Invitrogen), Noggin (100 ng/mL, R&D) and R-spondin1 (500 ng/mL).

[4] = test system: SW480 cells; experiment: Cell permeability of FITC-labeled peptides in SW480 cells (confocal microscopy); type: cell-based
Procedure: After elongation of the peptide and metathesis reaction were conducted on the resin according to a general protocol. Then, the Fmoc group was removed and the resin was treated with Fmoc-Ahx-OH (4 eq.), DIC (4 eq.), Oxyma pure (4 eq.) and NMP (6 mL) for 15 min at 60 °C. The Fmoc group was removed and the resin was treated with fluorescein isothiocyanate (FITC, 2 eq.) and DIPEA (2 eq.) in DMF (6 mL) at room temperature overnight. The biotinylated labeling was carried out as routine amino acid. Cleavage was conducted following a general protocol and crude peptide was purified by RP- HPLC to give the final products.
Supplementary Fig. S3. Cell permeability of FITC-labeled peptides in SW480 […]
(a) The uptake of FITC-labeled peptides into SW480 was examined after incubation for 6 h by confocal microscopy. The nuclei were counter-stained with DAPI. Scale bar = 100 μm. (b) FITC-xStAx and FITC-xStAx-VHLL were added to SW480 cells for 6 h, and then washed out with the growth medium. After 24 h and 48 h, the cells were counter-stained with DAPI and examined by confocal microscopy. Scale bar = 100 […]
(1 picture or pasted object on this page, not shown here)

CC[C@H](C)[C@@H]1NC(=O)[C@@](C)(NC(=O)[C@H](CCCNC(=N)N)NC(=O)[C@@H]2CCCN2C(=O)[C@H](Cc2c[nH]c3ccccc23)NC(=O)[C@H](CCCNC(=N)N)NC(=O)[C@H](CCCNC(=N)N)NC(C)=O)CCCC=CCCC[C@@](C)(C(=O)N[C@@H](Cc2c[nH]cn2)C(=O)N[C@H](C(=O)N[C@@H](CCCNC(=N)N)C(=O)N[C@@H](CCCNC(=N)N)C(=O)N[C@H](C(=O)N[C@@H](Cc2c[nH]c3ccccc23)C(=O)N[C@@H](CCCNC(=N)N)C(=O)NCCCCCC(=O)N[C@@H](C)C(=O)N[C@@H](CC(C)C)C(=O)N[C@@H](C)C(=O)N2CCC[C@H]2C(=O)N[C@@H](Cc2ccc(O)cc2)C(=O)N[C@H](C(=O)N2CCC[C@H]2C(N)=O)[C@@H](C)CC)C(C)C)C(C)C)NC(=O)[C@H](CC(=O)O)NC(=O)[C@H](CC(C)C)NC1=O [xStAx-VHLL] (Ac-RRWPR[S5]ILD[S5]HVRRVWR[Ahx]ALAPYIP-NH2; staple 6-10; N-terminus and C-terminus assumed)
inhibition of Wnt-induced Topflash-luciferase compared with small-molecule inhibitors ([1]; 70 μM xStAx-VHLL vs 10 μM XAV939, 20 μM PRI-724, 100 μM PNU-74654, 10 μM MSAB): comparable inhibition
dose dependence of effect on Wnt signaling (Topflash) ([1]; indicated concentrations): dose-dependent effect on Wnt signaling
Wnt3a-induced expression of the Topflash-luciferase reporter ([1]; peptides 70 μM each): more potent in decreasing the Wnt3a-induced expression of the reporter
Axin2 expression (β-galactosidase staining) [2]: significantly blocked Axin2 expression
β-catenin protein level in C-08 organoids ([3]; 2 days (48 h), immunoblot): reduced the β-catenin protein level
survival of C-11 organoids ([3]; 4 days): insensitive to xStAx-VHLL
patient-derived organoids whose survival was potently inhibited ([3]; 4 days, 12 CRC samples C-01 to C-12): 11/12
survival of C-08 and C-05 organoids ([3]; 4 days, compared with DMSO control): strong inhibition function
retention in the cell after wash-out ([4]; 6 h, washed out with growth medium, examined after 24 h and 48 h): retained in the cell much longer
membrane permeability / uptake into cells ([4]; 6 h incubation): could efficiently enter into a cell
